According to BindingDB's records for doi:10.1016/j.bmcl.2017.08.043 (Vanderbilt University, 2017):
pEC50: −log10 of the molar value.

Target: T1, Muscarinic acetylcholine receptor M4 (Homo sapiens, UniProt P08173)
T1 sequence (P08173 whole entry): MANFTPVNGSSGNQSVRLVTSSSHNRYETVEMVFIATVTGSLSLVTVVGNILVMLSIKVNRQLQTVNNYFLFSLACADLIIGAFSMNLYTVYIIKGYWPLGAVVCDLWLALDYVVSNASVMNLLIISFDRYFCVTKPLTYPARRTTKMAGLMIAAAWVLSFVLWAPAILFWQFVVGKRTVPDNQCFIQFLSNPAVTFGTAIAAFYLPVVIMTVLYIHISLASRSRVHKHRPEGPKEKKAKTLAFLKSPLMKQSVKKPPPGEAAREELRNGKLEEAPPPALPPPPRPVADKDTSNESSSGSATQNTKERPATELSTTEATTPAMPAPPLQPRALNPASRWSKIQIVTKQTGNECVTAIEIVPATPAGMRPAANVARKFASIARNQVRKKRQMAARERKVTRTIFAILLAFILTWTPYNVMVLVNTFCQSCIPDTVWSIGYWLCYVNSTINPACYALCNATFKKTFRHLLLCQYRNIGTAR
Assay: ChEBML_1696020
Text: Positive allosteric modulation of human M4 receptor expressed in CHO cells co-expressing Gqi5 assessed as increase in acetylcholine-induced calcium mobilization

- pEC50: 6.05
SMILES: N#Cc1cnc2ccc(F)cc2c1N1CCC(C(=O)NCc2ccccc2)CC1
